Columns and labels:
[1] = system: CT26-derived tumors; assay: In vivo formation of CT26-derived tumors; parameters: species or system Balb/c mice; conditions: for mice with CT26-derived macroscopic tumors: fourteen days after injection (control 10/10)
Protocol: CT26 cells (1×10^5 cells in 300 μl PBS 1×) were injected subcutaneously into the flank of Balb/c mice, whose fur was shaved and depilated. Five groups of 10 mice each were implanted with CT26. The first group received daily subcutaneously 300 μl PBS (control), the remaining groups received daily subcutaneously compound 14 at a final dose of 1, 4, 8, or 12 mg/kg/mouse dissolved in 300 μl PBS. Both compound 14 and PBS were administered starting on day 3. Further experimentation was performed to assess whether compound 14 had anti-cancer activity when administered systemically. To this end, 3 days after the CT26 inoculation, mice were injected with PBS or compound 14 (8 mg/kg/mouse) intraperitoneally. As a control, mice received subcutaneously compound 14 (8 mg/kg/mouse). Mice were monitored over the time for weight loss. After 2 weeks, mice were sacrificed, tumors were photographed, then excised and their mass calculated according to the following formula: ½×(short diameter)×(long diameter)×(height). Total extracts were prepared from xenografts and analyzed for cyclin D1 protein content by Western blotting using a commercially available antibody (Santa Cruz Biotechnology). To examine whether compound 14 was able to reduce the growth of established CRC xenografts, Balb/c mice were implanted with CT26 as described above. After 2 weeks, mice with similar tumor size, determined by caliper measurements, were divided into three groups of 8 mice each. The first group received daily subcutaneously 300 μl PBS (control), the second group received daily subcutaneously 5-ASA (80 mg/kg) dissolved in 300 μl PBS. The last group received daily subcutaneously compound 14 (8 mg/kg) dissolved in 300 μl PBS. Mice were monitored over the time for weight loss. After 2 weeks, mice were sacrificed, tumors were photographed, then excised and their mass calculated as described above. Studies were approved by the Local Ethical Committee.

[2] = system: 4T1-derived tumors; assay: 4T1 syngeneic tumor model; type: in vivo, Balb/c mice; conditions: FIG. 10; daily subcutaneous or intraperitoneal 8 mg/kg/mouse, starting day 3
Protocol: Eight- to 10-week-old female Balb/c mice were used for the 4T1 syngeneic tumor model. 4T1 cells (1×10^5 cells in 300 μl PBS 1×) were injected subcutaneously (s.c.) into the flank of mice, whose fur was shaved and depilated. Three groups of 8 mice each were implanted with 4T1. The first group received daily s.c. 300 μl PBS (control), the remaining groups were injected daily with compound 14 (8 mg/kg/mouse) s.c. or intraperitoneally (i.p.). Both compound 14 and PBS were administered starting on day 3. Mice were monitored over the time for weight loss and sacrificed at day 14. Tumors were photographed, and excised, and their mass calculated according to the following formula: ½×(short diameter)×(long diameter)×(height).

Question: `COc1ccc(N)cc1C(=O)NO` [compound 14, 2-methoxy-5-amino-N-hydroxybenzamide] was tested. Which “in-vivo formation of CT26-derived tumors” value ([1]; FIG. 7A, daily subcutaneously 1, 4, 8, or 12 mg/kg/mouse) did it give?
Answer: The value was “dose-dependently reduces”.

Question: What about the CT26-derived xenografts ([1]; FIG. 7B, intra-peritoneally 8 mg/kg/mouse) of the same compound?
Answer: Its CT26-derived xenografts is “inhibits”.

Question: What about the “cyclin D1 protein expression in xenografts” value ([1]; FIG. 7C, Western blotting, two different doses) of the same compound?
Answer: The value was “reduced”.

Question: And the body weight loss ([1]; during the study, treated groups)?
Answer: Its body weight loss is “No body weight loss”.

Question: And the “tumor mass in comparison to controls” value ([1]; given subcutaneously or intraperitoneally)?
Answer: The value was “significant decrease”.

Question: And the “mice with CT26-derived macroscopic tumors” value ([1]; intraperitoneally)?
Answer: Its value is 7/10.

Question: What about the “histological analysis of liver, kidney, spleen, and colon” value ([1]; mice receiving compound) of the same compound?
Answer: Its value is “no morphological alteration”.

Question: And the survival ([1]; mouse, in vivo)?
Answer: The survival was “all animals survived”.

Question: And the “mice with CT26-derived macroscopic tumors” value ([1]; subcutaneously)?
Answer: Its value is 5/10.

Question: What about the “4T1-derived tumor mass in comparison to controls” value [2] of the same compound?
Answer: Its value is “significant decrease”.
